In patent US20130344595A1, “CULTURE MEDIA FOR DEVELOPMENTAL CELLS CONTAINING ELEVATED CONCENTRATIONS OF LIPOIC ACID” (Vitrolife Sweden AB, priority 2007, published 2013):
Marks after values point to notes of the source that are not given here.

Experiments:
CF1 mouse embryos [1] = experiment: Sequential G1/G2 culture of mouse embryos, G1 with or without 10 μM lipoic acid (Example 2); assay type: cell-based; conditions: low O2
Method: CF1 mouse embryos were grown in either G1 alone or G1 plus 10 μM lipoic acid. After 48 hours, embryos from both treatment groups were moved to G2. All cultures were incubated in low O2. Compaction rates were assessed and blastocyst developmental rates were measured at 71 and 78 hours. Blastocysts were then differentially stained and counted.

8-cell hamster embryos = conditions: omission from Ham's F10 medium; cited from earlier work
[2] = tested on: reactive oxygen species (ROS); experiment: ROS generation in culture medium by UV photo-oxidation, H2DFFDA fluorescent dye (Example 4); conditions: all concentrations; compared to vehicle group; UV photo-oxidation in GMOPS-Plus
Method: In order to determine whether the lipoic acid is having an antioxidant effect, a series of experiments were performed using the fluorescent dye […] (H2DFFDA), which reacts with reactive oxygen species (ROS) intermediates. 200 μM H2DFFDA in DMSO was added to GMOPS-Plus (available from Vitrolife). Lipoic acid dissolved in EtOH with the final concentration within the media being 0.1% EtOH. Each drop was then photo-oxidized with 4 successive 2.5 minute exposures using UV light to generate ROS.
All results are based on comparison to the vehicle group ([…]), which was not significant in comparison to the control group.

CF1 mouse embryos [3] = experiment: Blastocyst development and cell number of mouse embryos cultured with lipoic acid at 20% or 5% O2 (Example 1); assay type: cell-based
Method: The following procedure was carried out. Lipoic acid was dissolved in ethanol. A 100 mM working solution in 100% EtOH was prepared with appropriate dilutions made to the culture media thereafter (1 μM, 10 μM and 100 μM final concentrations). A vehicle control, equivalent to the dilution of the highest concentration solution (0.1%), was used in all culture experiments. Zygotes were collected from 4-week-old CF1 outbred female mice. Cumulus-enclosed zygotes were collected at 21 h post hCG and denuded with 1 mg/mL hyaluronidase in G-MOPS supplemented with 5 mg/mL human serum albumin. Cultures were incubated at either 5% or 20% O2. After four days of culture, blastocyst development was analyzed and cell number was counted in 200 cultured embryos per treatment.
The results are shown in FIGS. 1 (20% O2) and 2 (5% O2). The data are based on 200 embryos cultured per study. […] Furthermore, the beneficial effect of lipoic acid was lost at higher concentrations. […] The data for FIGS. 1 and 2 are presented in Tables 6 and 7, respectively, which also provide the results for the trophectoderm, inner cell mass (ICM) and ICM ratio.

human embryos = experiment: Human embryo development in G1 medium with 10 μM lipoic acid (Example 5); assay type: cell-based; conditions: G1 medium with 10 μM lipoic acid versus G1 free of lipoic acid
Method: In accordance with the present invention, the effect of lipoic acid-containing culture media on human embryo development is examined. Good prognosis patients have half of their embryos cultured in G1 culture media free of lipoic acid (i.e., the control), while the other half are cultured in G1 medium containing 10 μM lipoic acid (i.e., the elevated lipoic acid medium).

CF1 mouse zygote = experiment: Effective concentration range of lipoic acid on mouse zygote development at 20% oxygen (Example 3); assay type: cell-based; conditions: for Day 3 (% compacting) / Day 4 (% Total Blast) / Day 5 (% Hatching) / Day 5 (% Total Blast) / Total Cell Number: 20% oxygen
Source text: The effective range of lipoic acid concentrations to enhance blastocyst development and cell number was established using CF1 mouse embryos.

rabbit morulae = conditions: omission from Ham's F10 medium; cited from earlier work
[4] = G1 + 10 μM LA for 48 hours, then G2

O=C(O)CCCC[C@@H]1CCSS1 (racemic) [lipoic acid]
inner cell mass number and percentage inner cell mass of total (CF1 mouse embryos [1]; 10 μM lipoic acid added to G1): increased inner cell mass number and percentage inner cell mass of total
% Expanded on Day 4 (CF1 mouse embryos [1]; [4]): 39.7%
% ICM (CF1 mouse embryos [1]; [4]): 31%**
Day 3 % a.m. (CF1 mouse embryos [1]; [4]): 81.0%
Day 4 blast % a.m. (CF1 mouse embryos [1]; [4]): 22.4%
Day 4 blast % p.m. (CF1 mouse embryos [1]; [4]): 65.5%
ICM (CF1 mouse embryos [1]; [4]): 16 ± 1
TE (CF1 mouse embryos [1]; [4]): 34 ± 2
Total (CF1 mouse embryos [1]; [4]): 50 ± 2
effect of omission of lipoic acid on development of 8-cell hamster embryos (8-cell hamster embryos): no significant effect on the development at any stage of culture
generation of ROS within the culture media [2]: concentration-dependent decrease in the generation of reactive oxygen
blastocyst cell number (CF1 mouse embryos [3]; 1 μM lipoic acid, at either 5% or 20% oxygen): no statistically significant increase in cell number
blastocyst cell number (CF1 mouse embryos [3]; 10 μM lipoic acid, outbred (CF1) mouse embryos): significantly higher cell number
blastocyst cell number versus control medium (CF1 mouse embryos [3]; 100 μM lipoic acid): significantly lower cell numbers
Day 5 % Blast (CF1 mouse embryos [3]; lipoic acid 1 μM, 5% O2): 76.15%
ICM (CF1 mouse embryos [3]; lipoic acid 1 μM, 5% O2): 16.83
ICM ratio (CF1 mouse embryos [3]; lipoic acid 1 μM, 5% O2): 19.71%
total cell # (CF1 mouse embryos [3]; lipoic acid 1 μM, 5% O2): 85.40
trophectoderm (CF1 mouse embryos [3]; lipoic acid 1 μM, 5% O2): 68.57
Day 5 % Blast (CF1 mouse embryos [3]; lipoic acid 1 μM, 20% O2): 59.18%
ICM (CF1 mouse embryos [3]; lipoic acid 1 μM, 20% O2): 13.07
ICM ratio (CF1 mouse embryos [3]; lipoic acid 1 μM, 20% O2): 19.12%
total cell # (CF1 mouse embryos [3]; lipoic acid 1 μM, 20% O2): 68.37
trophectoderm (CF1 mouse embryos [3]; lipoic acid 1 μM, 20% O2): 55.30
Day 5 % Blast (CF1 mouse embryos [3]; lipoic acid 10 μM, 5% O2): 76.74%^#
ICM (CF1 mouse embryos [3]; lipoic acid 10 μM, 5% O2): 22.49^####
ICM ratio (CF1 mouse embryos [3]; lipoic acid 10 μM, 5% O2): 22.10%
total cell # (CF1 mouse embryos [3]; lipoic acid 10 μM, 5% O2): 101.77^###
trophectoderm (CF1 mouse embryos [3]; lipoic acid 10 μM, 5% O2): 79.28^##
Day 5 % Blast (CF1 mouse embryos [3]; lipoic acid 10 μM, 20% O2): 61.47%^‡
ICM (CF1 mouse embryos [3]; lipoic acid 10 μM, 20% O2): 16.4731^‡‡‡‡
ICM ratio (CF1 mouse embryos [3]; lipoic acid 10 μM, 20% O2): 21.25%
total cell # (CF1 mouse embryos [3]; lipoic acid 10 μM, 20% O2): 77.527^‡‡‡
trophectoderm (CF1 mouse embryos [3]; lipoic acid 10 μM, 20% O2): 61.054^‡‡
Day 5 % Blast (CF1 mouse embryos [3]; lipoic acid 100 μM, 5% O2): 53.13%
ICM (CF1 mouse embryos [3]; lipoic acid 100 μM, 5% O2): 13.61
ICM ratio (CF1 mouse embryos [3]; lipoic acid 100 μM, 5% O2): 18.33%
total cell # (CF1 mouse embryos [3]; lipoic acid 100 μM, 5% O2): 74.21
trophectoderm (CF1 mouse embryos [3]; lipoic acid 100 μM, 5% O2): 60.61
Day 5 % Blast (CF1 mouse embryos [3]; lipoic acid 100 μM, 20% O2): 42.57%
ICM (CF1 mouse embryos [3]; lipoic acid 100 μM, 20% O2): 10.2916
ICM ratio (CF1 mouse embryos [3]; lipoic acid 100 μM, 20% O2): 19.07%
total cell # (CF1 mouse embryos [3]; lipoic acid 100 μM, 20% O2): 53.9583
trophectoderm (CF1 mouse embryos [3]; lipoic acid 100 μM, 20% O2): 43.6667
human embryo development up to the 8-cell and blastocyst stage (human embryos): Embryos develop quicker up to the 8-cell and blastocyst stage
Day 3 (% compacting) (CF1 mouse zygote; 5 μM LA): 38.9%
Day 4 (% Total Blast) (CF1 mouse zygote; 5 μM LA): 51.6%
Day 5 (% Hatching) (CF1 mouse zygote; 5 μM LA): 40.9%
Day 5 (% Total Blast) (CF1 mouse zygote; 5 μM LA): 81.8%
Total Cell Number (CF1 mouse zygote; 5 μM LA): 90.2 ± 4.8
Day 3 (% compacting) (CF1 mouse zygote; 10 μM LA): 51.4%
Day 4 (% Total Blast) (CF1 mouse zygote; 10 μM LA): 62.9%
Day 5 (% Hatching) (CF1 mouse zygote; 10 μM LA): 40.0%
Day 5 (% Total Blast) (CF1 mouse zygote; 10 μM LA): 92.7%
Total Cell Number (CF1 mouse zygote; 10 μM LA): 91.3 ± 4.7
Day 3 (% compacting) (CF1 mouse zygote; 20 μM LA): 26.5%
Day 4 (% Total Blast) (CF1 mouse zygote; 20 μM LA): 42.9%
Day 5 (% Hatching) (CF1 mouse zygote; 20 μM LA): 31.3%
Day 5 (% Total Blast) (CF1 mouse zygote; 20 μM LA): 73.1%
Total Cell Number (CF1 mouse zygote; 20 μM LA): 94.0 ± 7.2
Day 3 (% compacting) (CF1 mouse zygote; 40 μM LA): 22.9%
Day 4 (% Total Blast) (CF1 mouse zygote; 40 μM LA): 37.3%
Day 5 (% Hatching) (CF1 mouse zygote; 40 μM LA): 28.4%
Day 5 (% Total Blast) (CF1 mouse zygote; 40 μM LA): 74.6%
Total Cell Number (CF1 mouse zygote; 40 μM LA): 69.4 ± 5.8
Day 3 (% compacting) (CF1 mouse zygote; 80 μM LA): 22.9%
Day 4 (% Total Blast) (CF1 mouse zygote; 80 μM LA): 4.6%
Day 5 (% Hatching) (CF1 mouse zygote; 80 μM LA): 9.4%
Day 5 (% Total Blast) (CF1 mouse zygote; 80 μM LA): 29.7%
Total Cell Number (CF1 mouse zygote; 80 μM LA): 34.0
blastocyst development by day 5 and cell number relative to the control (CF1 mouse zygote; above 5 to 40 μM): lower blastocyst development by day 5 and lower cell number relative to the control
effect on progression to blastocyst stage, blastocyst cell number and inner cell mass (CF1 mouse zygote; lipoic acid at less than 5 μM): little, if any, effect
day 4 blastocyst development and cell numbers (CF1 mouse zygote; lipoic acid greater than about 40 μM): lower day 4 blastocyst development and decreased cell numbers
concentration of maximum improvement to embryo development (CF1 mouse zygote; within the range 5 μM to 40 μM): approximately 10 μM
effect of omission of lipoic acid on culture of rabbit morulae to expanded blastocysts (rabbit morulae): no significant effect
